From patent publication US20230092679A1, “MCL-1 INHIBITOR ANTIBODY-DRUG CONJUGATES AND METHODS OF USE” (NOVARTIS AG, priority 2019, published 2023) come the findings set out here.

Experiment [1] has as its system KMS21 BM cells. Briefly: Cell viability CTG assay, anti-CD46-Mcl-1 ADC (Example 14). Format: cell-based. As to conditions: 72h. As to the method:
KMS21 BM cells were cultivated in RPM11640 supplemented with 10% heat inactivated fetal bovine serum, penicillin (100 IU/ml), streptomycin (100 μg/ml) and L-glutamine (2 mM), at 37° C. in a humidified atmosphere containing 5% CO2. KMS21 BM cells were seeded in 96 microwell plates and exposed to the ADCs for 72h (3.16 fold serially diluted; 9 concentrations each, triplicates). […] All the conditions were tested in triplicates. Luminescence was quantified on a multipurpose plate reader. IC50s (Table 33) were calculated using standard four-parametric curve fitting. […] Each experiment was performed at least twice, with results being reproducible.

Experiment [2] relates to KMS21 BM cells. Briefly: CTG cell viability assay, KMS21 BM cells. The format is cell-based. As to conditions: FIG. 18. As to the method:
Cell viability may also be measured, e.g., by quantifying ATP, an indicator of metabolically active cells. In some embodiments, in vitro potency and/or cell viability of prepared ADCs or Mcl-1 inhibitor compounds may be assessed using a CellTiter-Glo® (CTG) cell viability assay, as described in the examples provided herein. In this assay, in some embodiments, the single reagent (CellTiter-Glo® Reagent) is added directly to cells cultured in serum-supplemented medium. The addition of reagent results in cell lysis and generation of a luminescent signal proportional to the amount of ATP present. The amount of ATP is directly proportional to the number of cells present in culture

SMILES strings stand for the structures.

A word on the IC50: it is the point on the concentration scale where inhibition reaches its midpoint. Read a high IC50 as weaker potency. As for `COc1ccccc1-c1nccc(COc2ccccc2C[C@@H](Oc2ncnc3sc(-c4ccc(F)cc4)c(-c4ccc(OCCN5CCN(C)CC5)c(Cl)c4C)c23)C(=O)O)n1` [C1, (2R)-2-[(5Sa)-5-[3-chloro-2-methyl-4-[2-(4-methylpiperazin-1-yl)ethoxy]phenyl]-6-(4-fluorophenyl)thieno[2,3-d]pyrimidin-4-yl]oxy-3-[2-[[2-(2-methoxyphenyl)pyrimidin-4-yl]methoxy]phenyl]propanoic acid], the “viability of KMS21 BM cells in CTG assay, in words” value with KMS21 BM cells [1] (FIG. 18) is recorded as “dose dependent decrease in the viability”. Further, in the experiment on KMS21 BM cells [1] (KMS-21BM, KMS21BM cell line, CTG), the concentration for half-maximal inhibition (IC50) was determined as 2.31 nM. Further, the “viability of KMS21 BM cells” value in the experiment on KMS21 BM cells [2] is “dose dependent decrease in the viability”.
